Like-named read-outs stand apart in the source and are kept apart here.
Key:
Format in all cases: cell-based
[1] = In vitro cell cytotoxicity (CellTiter-Glo) in Vero cells; conditions: African green monkey, 3-5 days, max concentration 500 or 1000 μM, * = average of two values
[2] = tested on: Zika virus, FSS 13025 strain (ZIKV, Cambodia 2010); assay: Yield reduction assay followed by plaque assay in Vero cells, ZIKV Cambodia 2010; conditions: for IC50: Zika virus, 96 h, read-out: ZIKV, Cambodian 2010 IC50; for IC50 (summary in words): summary of Table 3
Procedure: (§1) The iminosugar compounds set forth in Table 4, below, were evaluated for antiviral activity against Zika virus, FSS 13025 strain (ZIKV, Cambodia 2010) and PR ABC strain (ZIKV, PR2015) in an yield reduction assay followed by a plaque assay.
In the yield reduction assay, Vero cells were seeded in 24-well plates and incubated overnight. The next day, serial dilutions of a given compound were prepared at 300 μM, 100 μM, 30 μM, 10 μM, and 3.0 μM. Growth medium was removed from the cells and the serial dilutions of the given compound were added in duplicate for one hour. Zika virus, FSS 13025 strain (ZIKV, Cambodia 2010) was added at a multiplicity of infection (MOI) of 0.01 for one hour. Growth medium was added to 1 mL and the cells were incubated for 4 days. Thereafter, cell supernatants were harvested, cleared of cell debris by centrifugation, and stored at −80° C. until further analysis for viral content in a plaque assay.
Plaque assays were performed by seeding Vero cells in 24-well plates and allowing the cells to adhere overnight. The next day each of the harvested supernatants from the yield-reduction assay were serially diluted 10-fold, growth medium was removed from the cells, and the adhered cells were infected with the dilutions of the supernatants for 1 h. Methylcellulose was added and the cells were incubated for 3 days. Plaques were visualized by staining the cell monolayer with crystal violet. Relative inhibition was calculated using IDBS XLFIT analysis program.
(§2) The duplicate titers for virus-only (vehicle control) were averaged and used as 0% inhibition. Efficacy data for the compounds were reported as the mean of the duplicates, including the standard deviation (SD) and coefficient of variation (% CV). FIGS. 2A, 2B, 3A, 3B, 4A, 4B, 5A, 5B, 6A, 6B, 7A, 7B, 8A, 8B, 9A, 9B, 10A, 10B, 11A, 11B, 12A, 12B, 13A, 13B, 14A, 14B, and 15 show the in vitro inhibitory effect of the iminosugar compounds against Zika virus, FSS 13025 strain, as set forth in Table 3 below.

[3] = tested on: Zika virus, PR ABC strain (ZIKV, PR2015); assay: Yield reduction assay followed by plaque assay in Vero cells, ZIKV PR2015; conditions: 120 h, read-out: ZIKV, PR2015 IC50
Procedure: as §1
In the yield reduction assay, Vero cells were seeded in 24-well plates and incubated overnight. The next day, serial dilutions of a given compound were prepared at 200 μM, 100 μM, 20 μM, 4 μM, 0.8 μM, 0.16 μM, 0.03 μM, and 0.01 μM. Growth medium was removed from the cells and the serial dilutions of the given compound were added in duplicate for one hour. Zika virus, PR ABC strain (ZIKV, PR2015) was added at a multiplicity of infection (MOI) of 0.01 for one hour. Growth medium was added to 1 mL and the cells were incubated for 5 days. Thereafter, cell supernatants were harvested, cleared of cell debris by centrifugation, and stored at −80° C. until further analysis for viral content in a plaque assay.
Plaque assays were performed by seeding Vero cells in 24-well plates and allowing the cells to adhere overnight. The next day each of the harvested supernatants from the yield-reduction assay were serially diluted 10-fold, growth medium was removed from the cells, and the adhered cells were infected with the dilutions of the supernatants for 1 h. The cells were incubated with 0.8% carboxymethyl cellulose (CMC) for 3 days. At the end of the incubation, CMC overlay was removed, and the cells were permeabilized with an 80%/20% (V/V) mixture of ethanol and methanol for 10 min at −20° C. Plaques were visualized by performing an immunostaining assay with monoclonal 4G2 (ATCC) which was detected by HRP-conjugated goat anti-mouse antibody and visualized using HRP-conjugated goat anti-mouse polyclonal antibodies. Relative inhibition was calculated using IDBS XLFIT analysis program.
as §2

[4] = Vero cells, MOI 0.01, 4 days, plaque assay of supernatants, * = average of multiple data points
[5] = Vero cells, MOI 0.01, 5 days, plaque assay with immunostaining, * = average of multiple data points

IC50 [2, 4] [µM]	SMILES	CC50 [1] [µM]	other results
> 100	CN(C)Cc1ccc([N+](=O)[O-])c(NCCCCCCN2C[C@H](O)[C@@H](O)[C@H](O)[C@H]2CO)c1 [Compound 16, (2R,3R,4R,5S)-1-(6-((5-((dimethylamino)methyl)-2-nitrophenyl)amino)hexyl)-2-(hydroxymethyl)piperidine-3,4,5-triol]	> 1000	–
> 100	O=[N+]([O-])c1cc(-c2ccncn2)ccc1NCCCCCCN1C[C@H](O)[C@@H](O)[C@H](O)[C@H]1CO [Compound 24, (2R,3R,4R,5S)-2-(hydroxymethyl)-1-(6-((2-nitro-4-(pyrimidin-4-yl)phenyl)amino)hexyl)piperidine-3,4,5-triol]	816	–
47	O=[N+]([O-])c1cc(-c2ccccn2)ccc1NCCCCCCN1C[C@H](O)[C@@H](O)[C@H](O)[C@H]1CO [Compound 22, (2R,3R,4R,5S)-2-(hydroxymethyl)-1-(6-((2-nitro-4-(pyridin-2-yl)phenyl)amino)hexyl)piperidine-3,4,5-triol]	99.8	IC50 (summary in words) [2]: low micromolar activity
> 100	O=[N+]([O-])c1ccc(-n2cnnn2)cc1NCCCCCCN1C[C@H](O)[C@@H](O)[C@H](O)[C@H]1CO [Compound 9, (2R,3R,4R,5S)-2-(hydroxymethyl)-1-(6-((2-nitro-5-(1H-tetrazol-1-yl)phenyl)amino)hexyl)piperidine-3,4,5-triol]	> 1000	–
17	O=[N+]([O-])c1cc(-c2cccnc2)ccc1NCCCCCCN1C[C@H](O)[C@@H](O)[C@H](O)[C@H]1CO [Compound 25, (2R,3R,4R,5S)-2-(hydroxymethyl)-1-(6-((2-nitro-4-(pyridin-3-yl)phenyl)amino)hexyl)piperidine-3,4,5-triol]	101	IC50 (summary in words) [2]: low micromolar activity
–	CCCCCCCCCN1C[C@H](O)[C@@H](O)[C@H](O)[C@H]1CO [UV-2, (2R,3R,4R,5S)-2-(hydroxymethyl)-1-nonylpiperidine-3,4,5-triol]	–	IC50 ([3]; Vero): 95 µM
–	OC[C@@H]1[C@@H](O)[C@H](O)[C@@H](O)CN1CCCCCCNc1ncc2[nH]cnc2n1 [Compound 20, (2R,3R,4R,5S)-1-(6-((7H-purin-2-yl)amino)hexyl)-2-(hydroxymethyl)piperidine-3,4,5-triol]	832	IC50 [3, 5]: > 100 µM
18.9	O=[N+]([O-])c1cc(-c2ncccn2)ccc1NCCCCCCN1C[C@H](O)[C@@H](O)[C@H](O)[C@H]1CO [Compound 7, (2R,3R,4R,5S)-2-(hydroxymethyl)-1-(6-((2-nitro-4-(pyrimidin-2-yl)phenyl)amino)hexyl)piperidine-3,4,5-triol]	> 1000	IC50 (summary in words) [2]: low micromolar activity
> 100	O=[N+]([O-])c1cc(CN2CCCO2)ccc1NCCCCCCN1C[C@H](O)[C@@H](O)[C@H](O)[C@H]1CO [Compound 21, (2R,3R,4R,5S)-2-(hydroxymethyl)-1-(6-((4-(isoxazolidin-2-ylmethyl)-2-nitrophenyl)amino)hexyl)piperidine-3,4,5-triol]	2130	–
88.5	O=[N+]([O-])c1cc(NCCCCCCN2C[C@H](O)[C@@H](O)[C@H](O)[C@H]2CO)ccc1-n1cnnn1 [Compound 14, (2R,3R,4R,5S)-2-(hydroxymethyl)-1-(6-((3-nitro-4-(1H-tetrazol-1-yl)phenyl)amino)hexyl)piperidine-3,4,5-triol]	> 1000	–
> 100	O=[N+]([O-])c1cc(NCCCCCCN2C[C@H](O)[C@@H](O)[C@H](O)[C@H]2CO)ccc1-n1cccn1 [Compound 13, (2R,3R,4R,5S)-2-(hydroxymethyl)-1-(6-((3-nitro-4-(1H-pyrazol-1-yl)phenyl)amino)hexyl)piperidine-3,4,5-triol]	> 1000	–
–	O=[N+]([O-])c1cc(-n2ncnn2)ccc1NCCCCCCN1C[C@H](O)[C@@H](O)[C@H](O)[C@H]1CO [Compound 6, (2R,3R,4R,5S)-2-(hydroxymethyl)-1-(6-((2-nitro-4-(2H-tetrazol-2-yl)phenyl)amino)hexyl)piperidine-3,4,5-triol]	953	–
–	OC[C@@H]1[C@@H](O)[C@H](O)[C@@H](O)CN1CCCCCCNc1c(F)cc(F)cc1F [Compound 18, (2R,3R,4R,5S)-2-(hydroxymethyl)-1-(6-((2,4,6-trifluorophenyl)amino)hexyl)piperidine-3,4,5-triol trifluoroacetic acid]	413	IC50 ([2]; Vero): > 100 µM
> 100	O=[N+]([O-])c1cc(-c2cccnn2)ccc1NCCCCCCN1C[C@H](O)[C@@H](O)[C@H](O)[C@H]1CO [Compound 23, (2R,3R,4R,5S)-2-(hydroxymethyl)-1-(6-((2-nitro-4-(pyridazin-3-yl)phenyl)amino)hexyl)piperidine-3,4,5-triol]	5190	–
30.4	[N-]=[N+]=Nc1ccc(NCCCCN2C[C@H](O)[C@@H](O)[C@H](O)[C@H]2CO)c([N+](=O)[O-])c1 [Compound 17, (2R,3R,4R,5S)-1-(4-((4-azido-2-nitrophenyl)amino)butyl)-2-(hydroxymethyl)piperidine-3,4,5-triol]	350	IC50 (summary in words) [2]: low micromolar activity
> 100	O=[N+]([O-])c1ccc(N2CCNCC2)cc1NCCCCCCN1C[C@H](O)[C@@H](O)[C@H](O)[C@H]1CO [Compound 10, (2R,3R,4R,5S)-2-(hydroxymethyl)-1-(6-((2-nitro-5-(piperazin-1-yl)phenyl)amino)hexyl)piperidine-3,4,5-triol]	> 1000	–
–	CCCOCCCCCCN1C[C@H](O)[C@@H](O)[C@H](O)[C@H]1CO [UV-3, (2R,3R,4R,5S)-2-(hydroxymethyl)-1-(6-propoxyhexyl)piperidine-3,4,5-triol]	–	IC50 [3, 5]: > 100 µM
69.3	O=[N+]([O-])c1cc(-n2cnnn2)ccc1NCCCCCCN1C[C@H](O)[C@@H](O)[C@H](O)[C@H]1CO [Compound 5, (2R,3R,4R,5S)-2-(hydroxymethyl)-1-(6-((2-nitro-4-(1H-tetrazol-1-yl)phenyl)amino)hexyl)piperidine-3,4,5-triol]	> 1000	–
140	OC[C@@H]1[C@@H](O)[C@H](O)[C@@H](O)CN1CCCCCCNc1ccc(-n2ncnn2)cc1 [Compound 19, (2R,3R,4R,5S)-1-(6-((4-(2H-tetrazol-2-yl)phenyl)amino)hexyl)-2-(hydroxymethyl)piperidine-3,4,5-triol]	953	–
–	CCCCN1C[C@H](O)[C@@H](O)[C@H](O)[C@H]1CO [UV-1, (2R,3R,4R,5S)-1-butyl-2-(hydroxymethyl)piperidine-3,4,5-triol]	–	IC50 [3, 5]: 3 µM
106	O=[N+]([O-])c1cc(-n2nccn2)ccc1NCCCCCCN1C[C@H](O)[C@@H](O)[C@H](O)[C@H]1CO [Compound 3, (2R,3R,4R,5S)-2-(hydroxymethyl)-1-(6-((2-nitro-4-(2H-1,2,3-triazol-2-yl)phenyl)amino)hexyl)piperidine-3,4,5-triol]	245	–
77.1	N/C(=N/O)c1ccc(NCCCCCCN2C[C@H](O)[C@@H](O)[C@H](O)[C@H]2CO)c([N+](=O)[O-])c1 [Compound 4, (E)-N′-hydroxy-3-nitro-4-((6-((2R,3R,4R,5S)-3,4,5-trihydroxy-2-(hydroxymethyl)piperidin-1-yl)hexyl)amino)benzimidamide]	> 1000	–

— US20190282558A1, “Methods of Treating Zika Virus Infection” (Emergent Virology LLC, priority 2016, published 2019)
